The subject of data set [1] is C57/BL6 mice. As to the kind of experiment: Preliminary in vivo toxicity study, blood cell count (Cell Dyn 3500/3700). The arrangement: species or system mouse. As to the method:
FIGS. 11-25 depict the in vivo toxicity study for the natural and synthetic forms (respectively “NAT” and “SYN”) of geranyl acetate—a molecule called “AISA 5201” and selected for its representativeness of the AISA class—in a mouse model, for blood cell count parameters, at concentrations of 5, 10, 25, and 50 μg/mouse which correspond to non-toxic in vitro concentrations, allowing the desired biological effect to be observed, i.e. the inhibition of endothelial adhesion and endothelial actin polymerisation.
Two methods were used, one with the synthetic form named herein “SYN” (SIGMA catalogue number 173495), and the other with the natural unfiltered form (derived from geranium essential oils treated by HPLC) named herein “NAT”, of said molecule.
On the basis of the in vitro toxicity experiments, the “SYN” and “NAT” molecules were first tested on C57/BL6 mice at concentrations of 10, 25, and 50 μg/mouse, as well as on a control batch which was injected with PBS, either via the IP (intraperitoneal) or retro-orbital (IV) routes. Each batch consisted of 4 animals. A total of 16 animals was used.
Following the experiment, a blood cell count was performed using the Cell Dyn Systems 3500/3700 machine from Abbott Laboratories. This test was carried out to reveal any possible functional alterations. […]

Data set [2] has as its system rats. Particulars: rat, in vivo; cited from earlier work.

As for `CC(=O)OC/C=C(\C)CCC=C(C)C` [NAT, geranyl acetate], the “most appropriate concentration (WBC, NEU, LYM, MONO and PLT values closest to control)” value in data set [1] (first experiment, 10, 25, 50 μg/mouse tested) was determined as 50 μg/mouse. In addition, the blood cell count entry in data set [1] (mouse, in vivo) is on record as “remaining within the values of the standard range”.

Regarding `CC(=O)OC/C=C(\C)CCC=C(C)C` [AISA 5201, (E)-3,7-dimethyl-2,6-octadienyl acetate], the LD50 in data set [2] is given as 6,330 mg/kg.
